Values of other authors, collected in patent US20160339010A1, “Treatment of Partly Controlled or Uncontrolled Severe Asthma” (TAKEDA GMBH, priority 2014, published 2016).

Assays:
[1] = tested on: patients with high-dose corticosteroid dependent asthma; conditions: cited from earlier work
[2] = tested on: patients with severe and uncontrolled bronchial asthma; conditions: on top of Fluticasone 500 mcg/Salmeterol 50 mcg twice daily; cited from earlier work
[3] = tested on: asthma patients; conditions: cited from earlier work

SMILES: CC(C)(O)c1ccccc1CC[C@@H](SCC1(CC(=O)[O-])CC1)c1cccc(/C=C/c2ccc3ccc(Cl)cc3n2)c1.[Na+] [montelukast, [R-(E)]-1-[[[1-[3-[2-(7-chloro-2-quinolinyl)ethenyl]phenyl]-3-[2-(1-hydroxy-1-methylethyl)phenyl]propyl]thio]methyl]cyclopropaneacetic acid]
- sputum eosinophilia [1]: failure of montelukast to reduce

SMILES: O=C(Nc1c(Cl)cncc1Cl)c1ccc(OC(F)F)c(OCC2CC2)c1 [Roflumilast]
- FEV1 [2]: significantly improved
- Forced vital capacity (FVC) [2]: significantly improved
- accumulation of neutrophils in induced sputum [2]: reduced
- morning PEF [2]: significantly improved

SMILES: Cn1c(=O)c2[nH]cnc2n(C)c1=O [theophylline]
- benefit of add-on therapy to inhaled glucocorticosteroids [3]: no benefit
